The record followed here is ChEMBL document CHEMBL1201862, “PubChem BioAssay data set” (2004).

Holding throughout (experiment): NCI anticancer screen, dose series, 48 h
Test [1] has as its system SW-620.
The subject of test [2] is Malme-3M.
Test [3] relates to NCI/ADR-RES.
Test [4] has as its system MDA-MB-231.
For test [5], the system named is SK-MEL-28.
Test [6] has as its system SK-OV-3.
Test [7] has as its system NCI-H226.
Test [8] deals with UACC-62.
The test system of test [9] is OVCAR-8.
Test [10] deals with HT-29.
The subject of test [11] is OVCAR-4.
In test [12] the test system is SF-295.
For test [13], the system named is MOLT-4.
Test [14] relates to HCT-116.
Test [15] has as its system EKVX.
Test [16] deals with BT-549.
Test [17] has as its system SF-268.
Test [18] deals with DU-145.
Test [19] relates to SNB-75.
In test [20] the test system is T47D.

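Cells were grown in 96-well plates and exposed to each compound for 48 hours at five concentrations; endpoints were interpolated linearly between bracketing concentrations, or set to the highest concentration if not reached. At the GI50, growth is halved.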 Active and inactive are the calls of the source. Rule as the data show it: active = GI50 up to about 1.1 µM and inactive = higher. Non-standard residues stand in square brackets, D forms with d. Residues, ends and D or L forms follow the SMILES beside them. ξ: configuration not given here. *: point of attachment. NMeY = CN[C@@H](Cc1ccc(O)cc1)C(=O)O; Cbz = O=C(OCc1ccccc1)*; ξA = CC(N)C(=O)O

As for `O=c1ssc2c1Nc1c(ssc1=O)S2`, the GI50 in test [1] is 8.61 µM (inactive); in test [2] it was 5.9 µM (inactive); in test [3], 19.6 µM (inactive); in test [4], 23.4 µM (inactive); in test [5], 18.5 µM (inactive); in [6], 19.5 µM (inactive). In addition, the GI50 is 23.4 µM (inactive) in test [7]; 14 µM (inactive) in test [8]; 14.8 µM (inactive) in test [9]; 24.3 µM (inactive) in test [10]; 14.4 µM (inactive) in [11]; 27.7 µM (inactive) in [12]. Moreover, the GI50 was 9.51 µM (inactive) in [13]; 15.4 µM (inactive) in [14]; 15.4 µM (inactive) in test [15]; 25.3 µM (inactive) in test [16]; 16.2 µM (inactive) in test [17]; 13.4 µM (inactive) in test [18]. Moreover, the GI50 was 16.5 µM (inactive) in test [19] and 10.7 µM (inactive) in test [20].

As to `COc1ccc(C[C@@H](C(=O)NCC(N)=O)N(C)C(=O)[C@@H]2CCCN2C(=O)[C@H](CC(C)C)NC(=O)C(C)NC(=O)OCc2ccccc2)cc1` (stereo not given in full) (Cbz-[ξA]LP[NMeY](Me)G-NH2), the GI50 in test [1], in [2], in [3], in test [4], in test [5] and in test [6] was > 100 µM (inactive) throughout. Moreover, the GI50 in test [7], in [8], in test [9], in test [10], in test [11] and in test [12] was > 100 µM (inactive) in each case. Besides, the GI50 in test [13], in test [14], in [15], in test [16], in test [17] and in test [18] was > 100 µM (inactive) in each case. Also, the GI50 in [19] and in [20] was > 100 µM (inactive) in each case.

Regarding `COc1ccc(/C(=N/O)c2ccccc2-c2nc3ccccc3c(=O)n2-c2ccc(S(=O)(=O)Nc3ncccn3)cc2)cc1C`, the GI50 in [1] is 18 µM (inactive); in test [2], > 10 µM (inactive); in [3], 11.6 µM (inactive); in test [4], 18.4 µM (inactive); in test [5] it was 14.9 µM (inactive); in [6], 6.81 µM (inactive). Besides, the GI50 was > 10 µM (inactive) in [7]; 12.1 µM (inactive) in test [8]; 18.4 µM (inactive) in [9]; > 10 µM (inactive) in [10]; 17.9 µM (inactive) in test [11]; 12.9 µM (inactive) in [12]. Moreover, the GI50 in test [13] is 12.2 µM (inactive); in [14] it was 12.7 µM (inactive); in test [15], 16.5 µM (inactive); in test [16], 17.6 µM (inactive); in test [17], 16.7 µM (inactive); in test [18], 21.1 µM (inactive). Further, the GI50 in test [19] was 14.2 µM (inactive); in [20], 12.6 µM (inactive).

With `C=CCN1C(=O)/C(=C/c2ccc(OC)cc2)N=C1SC/C=C/C`, the GI50 in test [1] is 35.4 µM (inactive); in [2] it was 34.8 µM (inactive); in [3], 39 µM (inactive); in [4], 57.8 µM (inactive); in test [5], 87.7 µM (inactive); in test [6], > 100 µM (inactive). For the same molecule, the GI50 in [7] is 53.7 µM (inactive); in [8], 42.8 µM (inactive); in test [9], 31.8 µM (inactive); in test [10], 33.7 µM (inactive); in [11], 37.7 µM (inactive); in test [12] it was 41.3 µM (inactive). The GI50 in [13] was 20.3 µM (inactive); in test [14], 25.4 µM (inactive); in [15], 33.5 µM (inactive); in test [16] it was 39.7 µM (inactive); in [17] it was 53.8 µM (inactive); in test [18] it was 80 µM (inactive). Also, the results for the GI50 in [19] and in test [20] were 31.2 µM (inactive) and 12.6 µM (inactive), respectively.

In the case of `CCOP(=O)(OCC)/C(C#N)=C/c1cccn1N(C)C`, the GI50 in test [1], in test [2], in [3], in test [4], in [5] and in test [6] was > 100 µM (inactive) in each case. Also, the GI50 in [7], in [8], in test [9], in test [10], in [11] and in [12] was > 100 µM (inactive) throughout. Also, the GI50 in [13] is > 100 µM (inactive); in [14], 3.37 µM (inactive); in test [15], > 100 µM (inactive); in test [16], 62.2 µM (inactive); in [17], > 100 µM (inactive); in test [18], 0.144 µM (active). Also, the GI50 in test [19] was > 100 µM (inactive); in test [20] it was 47.6 µM (inactive).

Regarding `CO[C@]12C[C@H](CNC(=O)c3cc(Br)c(Br)[nH]3)O[C@H]1NC(=O)N2`, the GI50 in test [1], in [2], in test [3], in test [4], in test [5] and in test [6] was > 100 µM (inactive) throughout. The GI50 in test [7], in test [8], in [9], in test [10], in test [11] and in [12] was > 100 µM (inactive) in each case. The GI50 in [13], in test [14], in test [15], in test [16], in test [17] and in test [18] was > 100 µM (inactive) each time. In addition, the GI50 in [19] and in test [20] was > 100 µM (inactive) throughout.

Take `N#Cc1c(-c2ccc(Cl)cc2)cc(-c2ccc(Nc3ccnc4cc(C(F)(F)F)ccc34)cc2)nc1N`: the GI50 was 32.3 µM (inactive) in [1]; 63.2 µM (inactive) in [2]; > 100 µM (inactive) in [3]; 28.7 µM (inactive) in test [4]; 22.1 µM (inactive) in [5]; 39.6 µM (inactive) in test [6]. Moreover, the GI50 in test [7] is 24.7 µM (inactive); in test [8] it was 22.3 µM (inactive); in [9], > 100 µM (inactive); in test [10] it was 16.6 µM (inactive); in [11], 17.9 µM (inactive); in test [12] it was 19.3 µM (inactive). The GI50 in test [13] is 14.6 µM (inactive); in [14], 10.6 µM (inactive); in [15], 67 µM (inactive); in test [16] it was 63 µM (inactive); in test [17], 39.1 µM (inactive); in test [18], 28.1 µM (inactive). The GI50 is 23 µM (inactive) in [19] and 18.5 µM (inactive) in test [20].

Consider `NNC(=O)c1ccccc1NC(=O)/C(=C/c1ccccc1O)NC(=O)c1ccccc1`, for which the GI50 in test [1] is > 100 µM (inactive); in test [2] it was 25.4 µM (inactive); in test [3], 15.6 µM (inactive); in [4], 20.3 µM (inactive); in [5], > 100 µM (inactive); in [6] it was 39.7 µM (inactive). The GI50 in test [7] is 26.5 µM (inactive); in test [8] it was 67.1 µM (inactive); in test [9] it was 18.1 µM (inactive); in test [10] it was > 100 µM (inactive); in test [11] it was 27.3 µM (inactive); in [12], 44.8 µM (inactive). Moreover, the GI50 in test [13] is > 100 µM (inactive); in test [14], 88.3 µM (inactive); in test [15], 33.6 µM (inactive); in test [16] it was 31.8 µM (inactive); in test [17] it was 12.8 µM (inactive); in test [18], > 100 µM (inactive). The figures for the GI50 in test [19] and in [20] were 11.6 µM (inactive) and 11.5 µM (inactive), respectively.

As for `Cc1nc(N)nc(N)c1-c1ccc(Cl)c(Cl)c1` [METOPRINE], the GI50 in [1] was 0.144 µM (active); in [2], 2.91 µM (inactive); in [3], 1.1 µM (active); in [4] it was 0.466 µM (active); in test [5], 4.6 µM (inactive); in test [6] it was 3.48 µM (inactive). Besides, the GI50 in test [7] is > 33.3 µM (inactive); in test [8], 0.355 µM (active); in [9], 0.603 µM (active); in [10] it was 0.258 µM (active); in [11], 37.9 µM (inactive); in test [12], 0.411 µM (active). The GI50 in [13] was 0.607 µM (active); in [14], 0.0399 µM (active); in [15], 4.47 µM (inactive); in [16] it was 21 µM (inactive); in test [17], 1 µM (active); in test [18], 1.72 µM (inactive). Moreover, the GI50 in test [19] is 11.5 µM (inactive); in [20], 16.9 µM (inactive).

With `Cc1cn([C@H]2C[C@@H](N3C(=O)c4ccccc4C3=O)[C@@H](CO[Si](C)(C)C(C)(C)C)O2)c(=O)[nH]c1=O`, the GI50 is > 100 µM (inactive) in test [1]; 87.3 µM (inactive) in test [2]; 43.3 µM (inactive) in [3]; 70.3 µM (inactive) in [4]; > 100 µM (inactive) in test [5]; 30.1 µM (inactive) in test [6]. Further, the GI50 in test [7] was 57.1 µM (inactive); in test [8], 23.8 µM (inactive); in test [9] it was 32.5 µM (inactive); in [10], 20.4 µM (inactive); in test [11], > 100 µM (inactive); in test [12] it was 37 µM (inactive). Also, the GI50 was 36.9 µM (inactive) in [13]; 49.2 µM (inactive) in test [14]; 75.2 µM (inactive) in [15]; > 100 µM (inactive) in [16]; 30.6 µM (inactive) in [17]; > 100 µM (inactive) in [18]. In addition, the GI50 is 24 µM (inactive) in test [19] and > 100 µM (inactive) in test [20].
